The subject of data set [1] is patients who presented with psoriatic lesions. The experiment in a line: Topical treatment of psoriasis in outpatients. Format: in vivo, human. The settings on record: applied as a topical, episodic treatment for psoriasis. As for the experimental part: Eight patients who presented with psoriatic lesions were treated with the ointment of Example 1 on an outpatient basis. The ointment of Example 1 was applied to the psoriatic lesions up to four times per day.

For data set [2] the following is noted: water, alcohol, ether and chloroform; cited from earlier work.
For data set [3] the following is noted: Federal Register, vol. 47, 12553 (Mar. 23, 1982); cited from earlier work.

Molecules are shown by their SMILES.

As for `CC(=O)OCC(COC(C)=O)OC(C)=O` [Triacetin, 1,2,3-propanetriol triacetate], the “effect on psoriatic lesions” value in data set [1] is reported as “improve psoriatic lesions”. For the same compound, in data set [2], the miscibility result was “miscible in water, alcohol, ether and chloroform”. The “safety for topical use” value in data set [3] is recorded as “safe for topical use”. For `CC(=O)OCC(CO)OC(C)=O` (centres unmarked) [diacetin, glycerol diacetate], the miscibility entry in data set [2] was “miscible in water, alcohol, ether and chloroform”.

Consider `CC(=O)OCC(O)CO` (centres unmarked) [monacetin, glycerol monoacetate], for which, in data set [2], the miscibility result was “miscible in water, alcohol, ether and chloroform”.

Values taken from US6541517B1, “Treatment of skin disorders” (priority 1999, dated 2003).
